Source: patent publication US20260201008A1, “SECRETIN-DERIVED GLP1R SELECTIVE AGONISTS” (GUBRA A/S, priority 2023, published 2026)
Where two headings read alike, the source gives them in different places. Numbered stars: 1 amine (or outer) side, 2 acyl side, 3 side chain; on linkers, the order of the positions; unused ones are H or OH. Square brackets hold non-standard residues; d marks the D form. Side chains are listed from the residue outwards. Peptide text beside a SMILES is read from it. * marks the point of attachment. C20 diacid = O=C(O)CCCCCCCCCCCCCCCCCCC(=O)*; γGlu = O=C(O)[C@H](CCC(=O)[*:2])N[*:1]; AEEA = NCCOCCOCC(=O)O; Aib = CC(C)(N)C(=O)O

Experiments:
[1] = Fibril formation of crude library peptides (Thioflavin T); format: physicochemical; design: key: average ThT fluorescence emission at 480 nm (ex 450 nm), raw units; conditions: Physical stability of peptides
How it was run: (§1)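 Values reflect mean ThT emission (ex 450, em 480 nm) over 72 h at 40° C, read every 10 min after 5 min shaking at 700 rpm, plus a single initial absorbance at 600 nm for turbidity. Peptides were at 267 μM, pH 4.0 acetate or pH 7.0 phosphate (50 mM), with 4 μM ThT.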

SCTR = SCTR (Homo sapiens, UniProt P47872); assay: hSCTR potency, cAMP accumulation in CHO-K1 cells stably overexpressing hSCTR; format: cell-based; design: alternatively Euroscreen ES-712-AF; FAST-0161L; host or cells: CHO-K1; conditions: cAMP accumulation, CHO-K1 cells overexpressing hSCTR
Sequence of SCTR (P47872 23-440): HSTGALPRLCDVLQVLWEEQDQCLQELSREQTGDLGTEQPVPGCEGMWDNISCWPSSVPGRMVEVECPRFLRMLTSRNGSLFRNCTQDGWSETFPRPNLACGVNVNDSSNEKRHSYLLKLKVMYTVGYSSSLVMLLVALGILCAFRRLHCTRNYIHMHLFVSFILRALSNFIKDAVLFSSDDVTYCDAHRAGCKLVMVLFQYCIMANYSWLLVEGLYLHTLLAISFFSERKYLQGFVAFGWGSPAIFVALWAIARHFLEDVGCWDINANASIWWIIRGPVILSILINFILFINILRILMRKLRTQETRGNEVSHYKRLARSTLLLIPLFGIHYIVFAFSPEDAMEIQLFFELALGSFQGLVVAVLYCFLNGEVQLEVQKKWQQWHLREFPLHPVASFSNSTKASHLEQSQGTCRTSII
How it was run: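 Division-arrested CHO-K1 cells stably expressing hSCTR were plated in DPBS with 0.05% casein and 0.5 mM IBMX, then stimulated with test peptide for 30 min at room temperature. cAMP was read by HTRF after one hour. EC50 came from variable-slope sigmoidal nonlinear regression.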

[2] = Turbidity of crude library peptides (absorbance at 600 nm); format: physicochemical; conditions: Physical stability of peptides
How it was run: as §1

GLP1R = GLP1R (Homo sapiens, UniProt P43220); assay: hGLP1R potency, cAMP accumulation in CHO-K1 cells stably overexpressing hGLP1R; format: cell-based; design: host or cells: CHO-K1; conditions: for EC50: cAMP accumulation, CHO-K1 cells overexpressing hGLP1R; for SCTR EC50/GLP1R EC50 ratio: selectivity for hGLP1R over hSCTR, cAMP accumulation in CHO-K1 cells; for Selectivity: SCTR EC50/GLP1R EC50 ratio
Sequence of GLP1R (P43220 24-463): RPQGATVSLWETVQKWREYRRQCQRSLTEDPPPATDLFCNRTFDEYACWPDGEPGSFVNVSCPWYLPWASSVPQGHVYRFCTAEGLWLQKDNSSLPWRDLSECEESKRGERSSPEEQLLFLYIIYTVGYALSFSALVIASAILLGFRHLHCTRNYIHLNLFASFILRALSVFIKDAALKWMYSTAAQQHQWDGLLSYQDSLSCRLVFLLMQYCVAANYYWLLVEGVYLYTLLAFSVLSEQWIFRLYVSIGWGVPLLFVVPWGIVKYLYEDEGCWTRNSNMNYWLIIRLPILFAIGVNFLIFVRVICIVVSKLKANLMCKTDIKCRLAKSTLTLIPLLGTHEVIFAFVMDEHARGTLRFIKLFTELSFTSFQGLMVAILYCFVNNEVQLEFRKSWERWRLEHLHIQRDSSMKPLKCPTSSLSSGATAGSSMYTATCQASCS
How it was run: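 Cells were plated in DPBS with 0.05% casein and 0.5 mM IBMX, then stimulated for 30 min at room temperature with test compound. cAMP was read by TR-FRET after one hour. EC50 came from variable-slope sigmoid nonlinear regression; purified peptides ran as 11-point 3-fold series, n=2.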

[3] = read-out: hSCTR pEC50 (converted)
[4] = read-out: hGLP1R pEC50 (converted)
[5] = read-out: pEC50 hSCTR (converted)
[6] = read-out: pEC50 hGLPR1 (converted)

SMILES | Fibril formation [1] | EC50 (SCTR; [3]) | Turbidity (pH 7) [2] | EC50 (GLP1R; [4]) | SCTR EC50/GLP1R EC50 ratio (GLP1R) | EC50 (SCTR; [5]) | Selectivity (GLP1R) | EC50 (GLP1R; [6])
CC[C@H](C)[C@H](NC(=O)[C@H](Cc1ccccc1)NC(=O)[C@H](CCCNC(=N)N)NC(=O)[C@H](CCC(N)=O)NC(=O)[C@H](CC(C)C)NC(=O)[C@H](C)NC(=O)[C@H](C)NC(=O)CNC(=O)[C@H](CCC(=O)O)NC(=O)[C@H](CC(C)C)NC(=O)[C@H](CC(C)C)NC(=O)[C@@H](NC(=O)[C@H](CO)NC(=O)[C@@H](NC(=O)[C@H](CC(=O)O)NC(=O)[C@H](CO)NC(=O)[C@@H](NC(=O)[C@H](Cc1ccccc1)NC(=O)[C@@H](NC(=O)CNC(=O)[C@H](CCC(=O)O)NC(=O)C(C)(C)NC(=O)[C@@H](N)Cc1c[nH]cn1)[C@@H](C)O)[C@@H](C)O)[C@@H](C)CC)C(C)C)C(=O)N[C@@H](CCC(N)=O)C(=O)N[C@@H](Cc1c[nH]c2ccccc12)C(=O)N[C@@H](CC(C)C)C(=O)N[C@H](C(N)=O)C(C)C [compound 116] (H-H[Aib]EGTFTSDISVLLEGAALQRFIQWLV-NH2) | 202498 | 79.4 nM | 0.42 | 0.0501 nM | 1422 |  |  | 
CC(C)C[C@H](NC(=O)[C@H](Cc1ccccc1)NC(=O)[C@H](CCCNC(=N)N)NC(=O)[C@H](CCC(N)=O)NC(=O)[C@@H](NC(=O)[C@H](C)NC(=O)[C@H](C)NC(=O)C(C)(C)NC(=O)[C@H](CCC(=O)O)NC(=O)[C@H](CCCCNC(=O)COCCOCCNC(=O)COCCOCCNC(=O)CC[C@H](NC(=O)CCCCCCCCCCCCCCCCCCC(=O)O)C(=O)O)NC(=O)[C@H](CC(C)C)NC(=O)[C@H](Cc1ccccc1)NC(=O)[C@H](CO)NC(=O)[C@@H](NC(=O)[C@H](CC(=O)O)NC(=O)[C@H](CO)NC(=O)[C@@H](NC(=O)[C@H](Cc1ccccc1)NC(=O)[C@@H](NC(=O)CNC(=O)[C@H](CCC(=O)O)NC(=O)C(C)(C)NC(=O)[C@@H](N)Cc1c[nH]cn1)[C@@H](C)O)[C@@H](C)O)C(C)C)[C@@H](C)O)C(=O)N[C@@H](CCC(=O)O)C(=O)N[C@@H](Cc1c[nH]cn1)C(=O)N[C@@H](CC(C)C)C(=O)N[C@H](C(N)=O)C(C)C [compound 13] (H-H[Aib]EGTFTSDVSFLK([AEEA-AEEA-γGlu-C20 diacid])E[Aib]AATQRFLEHLV-NH2) | 16121 |  | 0.08 |  |  | 316 nM | 11130 | 0.0316 nM
CC(C)C[C@H](NC(=O)[C@H](Cc1ccccc1)NC(=O)[C@H](CCCNC(=N)N)NC(=O)[C@H](CCC(N)=O)NC(=O)[C@H](CC(C)C)NC(=O)C(C)(C)NC(=O)[C@H](C)NC(=O)[C@H](CCC(=O)O)NC(=O)[C@H](CCC(=O)O)NC(=O)[C@H](CCCCNC(=O)COCCOCCNC(=O)COCCOCCNC(=O)CC[C@H](NC(=O)CCCCCCCCCCCCCCCCCCC(=O)O)C(=O)O)NC(=O)[C@H](CC(C)C)NC(=O)[C@H](Cc1ccc(O)cc1)NC(=O)[C@H](CO)NC(=O)[C@@H](NC(=O)[C@H](CC(=O)O)NC(=O)[C@H](CO)NC(=O)[C@@H](NC(=O)[C@H](Cc1ccccc1)NC(=O)[C@@H](NC(=O)CNC(=O)[C@H](CCC(=O)O)NC(=O)C(C)(C)NC(=O)[C@@H](N)Cc1c[nH]cn1)[C@@H](C)O)[C@@H](C)O)C(C)C)C(=O)N[C@@H](CCC(=O)O)C(=O)N[C@@H](CCC(=O)O)C(=O)N[C@@H](CC(C)C)C(=O)N[C@H](C(N)=O)C(C)C [compound 151] (H-H[Aib]EGTFTSDVSYLK([AEEA-AEEA-γGlu-C20 diacid])EEA[Aib]LQRFLEELV-NH2) | 3061 | 126 nM | 0.08 | 0.0251 nM | 5170 |  |  | 
CC(C)C[C@H](NC(=O)[C@H](Cc1ccccc1)NC(=O)[C@H](CCCNC(=N)N)NC(=O)[C@H](CCC(N)=O)NC(=O)[C@H](C)NC(=O)[C@H](C)NC(=O)[C@H](C)NC(=O)[C@H](Cc1ccccc1)NC(=O)[C@H](CCC(=O)O)NC(=O)[C@H](CCCCNC(=O)COCCOCCNC(=O)COCCOCCNC(=O)CC[C@H](NC(=O)CCCCCCCCCCCCCCCCCCC(=O)O)C(=O)O)NC(=O)[C@H](CC(C)C)NC(=O)[C@@H](NC(=O)[C@H](CO)NC(=O)[C@@H](NC(=O)[C@H](CC(=O)O)NC(=O)[C@H](CO)NC(=O)[C@@H](NC(=O)[C@H](Cc1ccccc1)NC(=O)[C@@H](NC(=O)CNC(=O)[C@H](CCC(=O)O)NC(=O)C(C)(C)NC(=O)[C@@H](N)Cc1c[nH]cn1)[C@@H](C)O)[C@@H](C)O)C(C)C)C(C)C)C(=O)N[C@@H](CCC(=O)O)C(=O)N[C@@H](Cc1c[nH]cn1)C(=O)N[C@@H](CC(C)C)C(=O)N[C@H](C(N)=O)C(C)C [compound 29] (H-H[Aib]EGTFTSDVSVLK([AEEA-AEEA-γGlu-C20 diacid])EFAAAQRFLEHLV-NH2) | 28786 |  | 0.08 |  |  | 794 nM | 8541 | 0.1 nM
CC(C)C[C@H](NC(=O)[C@H](Cc1ccccc1)NC(=O)[C@H](CCCNC(=N)N)NC(=O)[C@H](CCC(N)=O)NC(=O)[C@H](C)NC(=O)[C@H](C)NC(=O)[C@H](C)NC(=O)C(C)(C)NC(=O)[C@H](CCC(=O)O)NC(=O)[C@H](CCCCNC(=O)COCCOCCNC(=O)COCCOCCNC(=O)CC[C@H](NC(=O)CCCCCCCCCCCCCCCCCCC(=O)O)C(=O)O)NC(=O)[C@H](CC(C)C)NC(=O)[C@H](CCCNC(=N)N)NC(=O)[C@H](CO)NC(=O)[C@@H](NC(=O)[C@H](CC(=O)O)NC(=O)[C@H](CO)NC(=O)[C@@H](NC(=O)[C@H](Cc1ccccc1)NC(=O)[C@@H](NC(=O)CNC(=O)[C@H](CCC(=O)O)NC(=O)C(C)(C)NC(=O)[C@@H](N)Cc1c[nH]cn1)[C@@H](C)O)[C@@H](C)O)C(C)C)C(=O)N[C@@H](CCC(=O)O)C(=O)N[C@@H](Cc1c[nH]cn1)C(=O)N[C@@H](CC(C)C)C(=O)N[C@H](C(N)=O)C(C)C [compound 81] (H-H[Aib]EGTFTSDVSRLK([AEEA-AEEA-γGlu-C20 diacid])E[Aib]AAAQRFLEHLV-NH2) | 10620 |  | 0.08 |  |  | 79.4 nM | 1217 | 0.0794 nM
CC(C)C[C@H](NC(=O)[C@H](Cc1ccccc1)NC(=O)[C@H](CCCNC(=N)N)NC(=O)[C@H](CCC(N)=O)NC(=O)[C@H](CC(C)C)NC(=O)C(C)(C)NC(=O)[C@H](C)NC(=O)[C@H](CCC(=O)O)NC(=O)[C@H](CCC(=O)O)NC(=O)[C@H](CCCCNC(=O)COCCOCCNC(=O)COCCOCCNC(=O)CC[C@H](NC(=O)CCCCCCCCCCCCCCCCCCC(=O)O)C(=O)O)NC(=O)[C@H](CC(C)C)NC(=O)[C@H](Cc1ccc(O)cc1)NC(=O)[C@H](CO)NC(=O)[C@@H]1CCCN1C(=O)[C@H](CC(=O)O)NC(=O)[C@H](CO)NC(=O)[C@@H](NC(=O)[C@H](Cc1ccccc1)NC(=O)[C@@H](NC(=O)CNC(=O)[C@H](CCC(=O)O)NC(=O)C(C)(C)NC(=O)[C@@H](N)Cc1c[nH]cn1)[C@@H](C)O)[C@@H](C)O)C(=O)N[C@@H](CCC(=O)O)C(=O)N[C@@H](Cc1c[nH]cn1)C(=O)N[C@@H](CC(C)C)C(=O)N[C@H](C(N)=O)C(C)C [compound 121] (H-H[Aib]EGTFTSDPSYLK([AEEA-AEEA-γGlu-C20 diacid])EEA[Aib]LQRFLEHLV-NH2) | 24767 | 39800 nM | 0.08 | 2.51 nM | 17452 |  |  | 
CC(C)C[C@H](NC(=O)[C@H](Cc1ccccc1)NC(=O)[C@H](CCCNC(=N)N)NC(=O)[C@H](CCC(N)=O)NC(=O)[C@H](CCC(N)=O)NC(=O)[C@H](C)NC(=O)[C@H](C)NC(=O)[C@H](CCC(=O)O)NC(=O)[C@H](CCC(=O)O)NC(=O)[C@H](CCCCNC(=O)COCCOCCNC(=O)COCCOCCNC(=O)CC[C@H](NC(=O)CCCCCCCCCCCCCCCCCCC(=O)O)C(=O)O)NC(=O)[C@H](CC(C)C)NC(=O)[C@@H](NC(=O)[C@H](CO)NC(=O)[C@@H](NC(=O)[C@H](CC(=O)O)NC(=O)[C@H](CO)NC(=O)[C@@H](NC(=O)[C@H](Cc1ccccc1)NC(=O)[C@@H](NC(=O)CNC(=O)[C@H](CCC(=O)O)NC(=O)C(C)(C)NC(=O)[C@@H](N)Cc1c[nH]cn1)[C@@H](C)O)[C@@H](C)O)C(C)C)[C@@H](C)O)C(=O)N[C@@H](CCC(=O)O)C(=O)N[C@@H](Cc1c[nH]cn1)C(=O)N[C@@H](CC(C)C)C(=O)N[C@H](C(N)=O)C(C)C [compound 39] (H-H[Aib]EGTFTSDVSTLK([AEEA-AEEA-γGlu-C20 diacid])EEAAQQRFLEHLV-NH2) | 9592 |  | 0.08 |  |  | 316 nM | 17346 | 0.0158 nM
